Values quoted from earlier work in patent US9789078B2, “Method of topically treating actinic keratosis with ingenol mebutate cycle therapy” (LEO Laboratories Limited, priority 2012, dated 2017).
Where two headings read alike, the source gives them in different places.

Settings: first treatment cycle, cited from earlier work

## C/C=C(/C)C(=O)O[C@H]1C(C)=C[C@]23C(=O)[C@@H](C=C(CO)[C@@H](O)[C@]12O)[C@H]1[C@@H](C[C@H]3C)C1(C)C [ingenol mebutate]
Topical application to the face or scalp
  time to resolution of local adverse events without sequelae: ≤ 2 weeks
Topical application to the trunk or extremities
  time to resolution of local adverse events without sequelae: ≤ 4 weeks
